{"source": "ChEMBL document CHEMBL4261565", "about": "“A systematic analysis of atomic protein-ligand interactions in the PDB” (Medchemcomm, 2017)"}
{"target": "Coagulation factor X (Homo sapiens, UniProt P00742)", "sequence (P00742 41-179 limits assumed)": "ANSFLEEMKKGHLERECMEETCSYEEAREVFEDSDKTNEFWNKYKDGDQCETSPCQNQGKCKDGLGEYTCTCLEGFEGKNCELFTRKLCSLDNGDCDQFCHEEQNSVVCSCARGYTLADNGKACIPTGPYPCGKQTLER", "sequence (P00742 235-488 limits assumed)": "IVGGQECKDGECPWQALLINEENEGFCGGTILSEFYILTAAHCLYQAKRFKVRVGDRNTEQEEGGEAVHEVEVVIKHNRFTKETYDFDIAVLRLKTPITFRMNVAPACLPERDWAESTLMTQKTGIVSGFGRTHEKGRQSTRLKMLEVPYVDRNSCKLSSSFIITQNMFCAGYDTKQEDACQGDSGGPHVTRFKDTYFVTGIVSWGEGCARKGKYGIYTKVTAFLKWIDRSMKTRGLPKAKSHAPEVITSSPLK", "test": "Inhibition of human factor 10a using […] as substrate by spectrophotometric method", "units": {"Ki": "µM"}}
{"smiles": "C[N+](C)(C)CCCN1C(=O)[C@@H]2[C@H](C1=O)[C@H](c1cc(-c3ccc(Cl)s3)on1)N1CCC[C@@H]21", "note": "(racemic)", "Ki": 0.009}
{"smiles": "NCCCN1C(=O)[C@@H]2[C@H](C1=O)[C@H](c1cc(-c3ccc(Cl)s3)on1)N1CCC[C@@H]21", "note": "(racemic)", "Ki": 9.8}
{"smiles": "CNCCCN1C(=O)[C@@H]2[C@H](C1=O)[C@H](c1cc(-c3ccc(Cl)s3)on1)N1CCC[C@@H]21", "note": "(racemic)", "Ki": 0.911}
{"smiles": "CN(C)CCCN1C(=O)[C@@H]2[C@H](C1=O)[C@H](c1cc(-c3ccc(Cl)s3)on1)N1CCC[C@@H]21", "note": "(racemic)", "Ki": 0.056}
{"smiles": "CC(C)(C)CCCN1C(=O)[C@@H]2[C@H](C1=O)[C@H](c1cc(-c3ccc(Cl)s3)on1)N1CCC[C@@H]21", "note": "(racemic)", "Ki": 0.55}
